Laboratory results reported in article PMC9860315, “Neuronally produced betaine acts via a ligand-gated ion channel to control behavioral states” (Proceedings of the National Academy of Sciences of the …, 2022).

Columns and labels:
LGC-41 [1] = target: T1, LGC-41 (Caenorhabditis elegans, UniProt Q18518); assay: two-electrode voltage clamp in Xenopus oocytes, block of current induced by […] betaine; assay type: cell-based
T1 construct: homomeric channel, cDNA from wild-type N2
T1 sequence (Q18518 26-540): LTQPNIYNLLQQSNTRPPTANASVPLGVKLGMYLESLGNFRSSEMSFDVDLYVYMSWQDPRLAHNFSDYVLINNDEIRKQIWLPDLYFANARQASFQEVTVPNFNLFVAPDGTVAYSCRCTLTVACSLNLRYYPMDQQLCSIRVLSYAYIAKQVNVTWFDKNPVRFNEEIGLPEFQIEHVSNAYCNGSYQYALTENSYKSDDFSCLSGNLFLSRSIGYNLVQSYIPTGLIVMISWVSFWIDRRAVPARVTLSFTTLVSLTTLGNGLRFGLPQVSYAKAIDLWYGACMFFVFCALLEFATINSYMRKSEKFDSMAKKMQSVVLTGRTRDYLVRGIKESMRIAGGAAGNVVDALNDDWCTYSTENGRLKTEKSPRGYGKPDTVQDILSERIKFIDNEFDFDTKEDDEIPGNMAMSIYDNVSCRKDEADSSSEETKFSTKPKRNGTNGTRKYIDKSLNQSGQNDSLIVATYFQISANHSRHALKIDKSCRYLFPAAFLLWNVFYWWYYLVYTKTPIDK

LGC-41 [2] = target: T1, LGC-41; assay: two-electrode voltage clamp in Xenopus oocytes, agonist dose-response; assay type: cell-based

EC50 (LGC-41 [2]) | SMILES | IC50 (LGC-41 [1])
– | C=C(C)[C@@H]1[C@H]2OC(=O)[C@@H]1[C@]1(O)C[C@H]3OC34C(=O)O[C@H]2[C@@]41C.CC(C)(O)[C@@H]1[C@H]2OC(=O)[C@@H]1[C@]1(O)C[C@H]3OC34C(=O)O[C@H]2[C@@]41C (stereo partly drawn) [picrotoxin] | 144 µM
– | O=C1C[C@@H]2OCC=C3CN4CC[C@]56c7ccccc7N1[C@H]5[C@H]2[C@H]3C[C@H]46 [strychnine] | 973 µM
211 µM | C[N+](C)(C)CC(=O)O [betaine] | –
